From ChEMBL document CHEMBL1139537, “Examination of phosphoryl-mimicking functionalities within a macrocyclic Grb2 SH2 domain-binding platform” (J Med Chem, 2005)

What was measured:
[1] = target: T1, Growth factor receptor-bound protein 2 (Homo sapiens, UniProt P62993); experiment: Dissociation constant value against growth factor receptor bound protein 2
[2] = target: T1, Growth factor receptor-bound protein 2; experiment: Binding off-rate against growth factor receptor bound protein 2
[3] = target: T1, Growth factor receptor-bound protein 2; experiment: Inhibitory concentration against growth factor receptor bound protein 2
[4] = target: T1, Growth factor receptor-bound protein 2; experiment: Binding on-rate against growth factor receptor bound protein 2

Structure (SMILES)	Kd [1]	koff [2]	IC50 [3]	Ka [4]
Cc1ccc2c(ccn2C[C@@H]2C/C=C/[C@H](c3ccc(O)cc3)[C@H](CC(=O)O)C(=O)NC3(CCCCC3)C(=O)N[C@@H](CC(N)=O)C(=O)NC2)c1	> 1000 nM	–	–	–
Cc1ccc2c(ccn2C[C@@H]2C/C=C/[C@H](c3ccc(NC(=O)C(=O)O)cc3)[C@H](CC(=O)O)C(=O)NC3(CCCCC3)C(=O)N[C@@H](CC(N)=O)C(=O)NC2)c1	67 nM	0.0508 s⁻¹	8.8 nM	–
Cc1ccc2c(ccn2C[C@@H]2C/C=C/[C@H](c3ccc(CP(C)(=O)O)cc3)[C@H](CC(=O)O)C(=O)NC3(CCCCC3)C(=O)N[C@@H](CC(N)=O)C(=O)NC2)c1	16.2 nM	0.00988 s⁻¹	6.3 nM	–
Cc1ccc2c(ccn2C[C@@H]2C/C=C/[C@H](c3ccc(C(C(=O)O)C(=O)O)cc3)[C@H](CC(=O)O)C(=O)NC3(CCCCC3)C(=O)N[C@@H](CC(N)=O)C(=O)NC2)c1	3.62 nM	0.0227 s⁻¹	3.3 nM	–

The next lines start with the values.

Kd [1]	koff [2]	IC50 [3]	Ka [4]	Structure (SMILES)
> 1000 nM	–	–	–	Cc1ccc2c(ccn2C[C@@H]2C/C=C/[C@H](c3ccc([N+](=O)[O-])cc3)[C@H](CC(=O)O)C(=O)NC3(CCCCC3)C(=O)N[C@@H](CC(N)=O)C(=O)NC2)c1
35.3 nM	0.00512 s⁻¹	8.4 nM	–	Cc1ccc2c(ccn2C[C@@H]2C/C=C/[C@H](c3ccc(CP(=O)(O)Cc4ccccc4)cc3)[C@H](CC(=O)O)C(=O)NC3(CCCCC3)C(=O)N[C@@H](CC(N)=O)C(=O)NC2)c1
1.47 nM	0.00801 s⁻¹	15 nM	5.46e+06 M⁻¹ s⁻¹	Cc1ccc2c(ccn2C[C@@H]2C/C=C/[C@H](c3ccc(CP(=O)(O)O)cc3)[C@H](CC(=O)O)C(=O)NC3(CCCCC3)C(=O)N[C@@H](CC(N)=O)C(=O)NC2)c1
33 nM	0.0101 s⁻¹	22.5 nM	–	Cc1ccc2c(ccn2C[C@@H]2C/C=C/[C@H](c3ccc(CC(=O)O)cc3)[C@H](CC(=O)O)C(=O)NC3(CCCCC3)C(=O)N[C@@H](CC(N)=O)C(=O)NC2)c1
